Settings: pH 7.4

## Ac- MNWESkGEwlRMRYGtmLSNGnM- NH2 [Design P2]
  Solubility (in words): less soluble

## Ac- RGEaWmYlKNNLSETmMsNmWGR- NH2 [AP6]
  Solubility (in words): less soluble
